For 64 molecules, IC50 results are on record in patent US20230339851A1, “CXCR6 SULFONAMIDE COMPOUNDS” (CHEMOCENTRYX, INC., priority 2022, published 2023).

For this assay, the target named is T1, human CXCR6 (Homo sapiens, UniProt O00574).
T1 construct: expressed in transfected cells
The experiment in a line: Radioligand Binding Assay (125I-CXCL16 displacement). Conditions: L1.2 cells stably transfected with human CXCR6 cDNA, 0.1 nM 125I-CXCL16, 4° C., three-hour incubation; read-out: Potency (IC50). The procedure, abridged: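 Displacement of 0.1 nM 125I-CXCL16 from human CXCR6 stably expressed in L1.2 cells was measured after a 3 h, 4 °C incubation in HBSS with 0.1% BSA. Filter-bound cpm were counted, and IC50 values came from a 3-parameter nonlinear fit.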

T1 sequence (O00574 whole entry): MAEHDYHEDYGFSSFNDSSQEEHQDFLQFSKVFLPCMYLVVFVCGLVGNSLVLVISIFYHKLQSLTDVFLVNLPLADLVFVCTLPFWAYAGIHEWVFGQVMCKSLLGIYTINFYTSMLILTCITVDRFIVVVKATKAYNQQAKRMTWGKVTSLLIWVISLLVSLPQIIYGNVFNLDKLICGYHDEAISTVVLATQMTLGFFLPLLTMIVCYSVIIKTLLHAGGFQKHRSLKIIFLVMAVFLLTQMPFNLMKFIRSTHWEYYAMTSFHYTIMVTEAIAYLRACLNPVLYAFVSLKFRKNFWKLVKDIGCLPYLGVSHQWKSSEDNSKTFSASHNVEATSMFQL

With `COc1cc(NC(=O)[C@@H](O)C(C)C)ccc1S(=O)(=O)Nc1cccc(OC(F)(F)F)c1` [Example 1.438], the half-inhibitory concentration (IC50) was not above 200 nM.

On to `COc1cc(NC(=O)C2CCCCC2C)ccc1S(=O)(=O)Nc1cccc(C(F)(F)F)c1` (stereo not shown) [Example 1.417], for which the IC50 lay within 750 to 2000 nM.

Take `CCOc1cc(NC(=O)C(NC)c2ccccc2)ccc1S(=O)(=O)Nc1cccc(OC(F)(F)F)c1` (stereo not shown) [Example 1.408]: the IC50 is not above 200 nM.

As to `O=C(Nc1ccc(S(=O)(=O)Nc2cccc(OC(F)(F)F)c2)c(F)c1)C(CO)c1ccccc1` (stereo not shown) [Example 1.395], the half-inhibitory concentration (IC50) fell in the range of 750 to 2000 nM.

As to `Cc1cc(NC(=O)C(CO)c2ccccc2)ccc1S(=O)(=O)Nc1cccc(OC(F)(F)F)c1` (stereo not shown) [Example 1.569], the IC50 lay in the range of 200 to 750 nM.

With `C=Cc1ccc(NS(=O)(=O)c2ccc(NC(=O)[C@@H](CO)C3CC3)cc2OCC)cc1C` [Example 1.146], the IC50 was not above 200 nM.

For the molecule `CCOc1cc(NC(=O)[C@@H](O)C(C)C)ccc1S(=O)(=O)Nc1ccc(C(F)(F)F)cc1` [Example 1.244], the half-maximal inhibitory concentration (IC50) lay within 200 to 750 nM.

Regarding `COc1cc(NC(=O)C2CC3C=CC2C3)ccc1S(=O)(=O)Nc1cccc(C(F)(F)F)c1` (stereo not shown) [Example 1.379], the concentration for half-maximal inhibition (IC50) lay in the range of 200 to 750 nM.

With `Cc1cc(NC(=O)c2ccnn2C)cc(F)c1S(=O)(=O)Nc1cccc(OC(F)(F)F)c1` [Example 1.502], the IC50 is 200 to 750 nM.

For `CC(=O)Nc1ccc(S(=O)(=O)Nc2cccc(OC(F)(F)F)c2)c(C(C)C)c1` [Example 1.132], the IC50 was in the range of 2000 to 20000 nM.

As for `CCOc1cc(NC(=O)[C@@H](NC=O)C(C)CC)ccc1S(=O)(=O)Nc1cccc(OC(F)(F)F)c1` (stereo partly shown) [Example 1.108], the IC50 was not above 200 nM.

`CCOc1cc(NC(=O)C(c2ccccc2)C(C)O)ccc1S(=O)(=O)Nc1cccc(OC(F)(F)F)c1` (stereo not shown) [Example 1.446]: the half-inhibitory concentration (IC50) was not above 200 nM.

For the molecule `CCOc1cc(NC(=O)C(C(C)C)C(C)O)ccc1S(=O)(=O)Nc1cccc(OC(F)(F)F)c1` (stereo not shown) [Example 1.133], the concentration for half-maximal inhibition (IC50) is not above 200 nM.

`CCOc1cc(NC(=O)[C@@H](CO)C(C)C)ccc1S(=O)(=O)Nc1cccc(Cl)c1C(F)(F)F` [Example 1.159]: the IC50 lay in the range of 2000 to 20000 nM.

As for `CCOc1cc(NC(=O)CC(O)c2nccs2)ccc1S(=O)(=O)Nc1cccc(OC(F)(F)F)c1` (stereo not shown) [Example 1.485], the IC50 lay in the range of 200 to 750 nM.

For `COc1cc(NC(=O)c2ccnn2C)ccc1S(=O)(=O)Nc1ccc(C#N)c(OC(F)(F)F)c1` [Example 1.015], the 50% inhibitory concentration (IC50) is 750 to 2000 nM.

With `COc1cc(NC(=O)c2ccn[nH]2)ccc1S(=O)(=O)Nc1cccc(C(F)(F)F)c1` [Example 1.055], the IC50 lay in the range of 750 to 2000 nM.

Turning to `CCOc1cc(NC(=O)c2cccnc2N)ccc1S(=O)(=O)Nc1cccc(OC(F)(F)F)c1` [Example 1.162], the half-inhibitory concentration (IC50) is not above 200 nM.

Regarding `CCOc1cc(NC(=O)[C@@H](CO)C2CC2)ccc1S(=O)(=O)Nc1cccc(C(F)(F)F)c1` [Example 1.494], the half-inhibitory concentration (IC50) is not above 200 nM.

Consider `CCOc1cc(NC(=O)[C@@H](O)C(C)C)ccc1S(=O)(=O)Nc1ccc(Cl)c(OC)c1` [Example 1.154], for which the IC50 lay within 200 to 750 nM.

With `CCOc1cc(NC(=O)[C@H]2CC[C@@H](OC)CC2)ccc1S(=O)(=O)Nc1cccc(OC(F)(F)F)c1` [Example 1.412], the 50% inhibitory concentration (IC50) lay within 750 to 2000 nM.

In the case of `CCOc1cc(NC(=O)C2CCC=C[C@@H]2O)ccc1S(=O)(=O)Nc1cccc(OC(F)(F)F)c1` (stereo partly shown) [Example 1.303], the IC50 is not above 200 nM.

For `CCOc1cc(NC(=O)C(O)c2cccnc2)ccc1S(=O)(=O)Nc1cccc(OC(F)(F)F)c1` (stereo not shown) [Example 1.493], the IC50 was 750 to 2000 nM.

In the case of `Cc1cc(NC(=O)c2c(C)noc2C)ccc1S(=O)(=O)Nc1cccc(C(F)(F)F)c1` [Example 1.325], the 50% inhibitory concentration (IC50) fell in the range of 2000 to 20000 nM.

As for `CCOc1cc(NC(=O)[C@@H](O)[C@@H](C)CC)ccc1S(=O)(=O)Nc1ccc(F)c(OC(F)(F)F)c1` [Example 1.259], the half-maximal inhibitory concentration (IC50) is not above 200 nM.

On to `O=C(Nc1ccc(S(=O)(=O)Nc2cccc(OC(F)(F)F)c2)c(Cl)c1)[C@@H](CO)c1ccccc1` [Example 1.196], for which the half-maximal inhibitory concentration (IC50) is not above 200 nM.

With `Cc1cc(NC(=O)[C@@H](CO)C2CC2)ccc1S(=O)(=O)Nc1cccc(OC(F)(F)F)c1` [Example 1.079], the 50% inhibitory concentration (IC50) is not above 200 nM.

As for `CCOc1cc(NC(=O)C(CN)c2ccccc2)ccc1S(=O)(=O)Nc1cccc(OC(F)(F)F)c1` (stereo not shown) [Example 1.104], the half-inhibitory concentration (IC50) is not above 200 nM.

In the case of `CCOc1cc(NC(=O)C(CO)C2CCC2)ccc1S(=O)(=O)Nc1cccc(OC(F)(F)F)c1` (stereo not shown) [Example 1.376], the IC50 is not above 200 nM.

For the molecule `CCOc1cc(NC(=O)[C@@H](CO)C(C)C)ccc1S(=O)(=O)Nc1ccc2c(c1)OC(F)(F)O2` [Example 1.050], the concentration for half-maximal inhibition (IC50) was 200 to 750 nM.

As to `CCOc1cc(NC(=O)[C@@H](O)C(C)C)ccc1S(=O)(=O)Nc1cccc(OC)c1C` [Example 1.290], the IC50 lay within 750 to 2000 nM.

On to `CCOc1cc(NC(=O)CC(C)(O)CC)ccc1S(=O)(=O)Nc1cccc(OC(F)(F)F)c1` (stereo not shown) [Example 1.052], for which the IC50 was in the range of 200 to 750 nM.

Take `CCOc1cc(NC(=O)[C@@H](CO)C(C)C)ccc1S(=O)(=O)Nc1ccc(C)c(C(F)(F)F)c1` [Example 1.102]: the IC50 was not above 200 nM.

Regarding `COc1cc(NC(=O)[C@@H]2CCCC[C@H]2O)ccc1S(=O)(=O)Nc1cccc(OC(F)(F)F)c1` [Example 1.049], the 50% inhibitory concentration (IC50) fell in the range of 750 to 2000 nM.

For `O=C(Nc1ccc(S(=O)(=O)Nc2cccc(OC(F)(F)F)c2)c(OC(F)(F)F)c1)[C@@H](CO)c1ccccc1` [Example 1.361], the IC50 was not above 200 nM.

Turning to `CCOc1cc(NC(=O)C(O)c2ccc(F)cc2)ccc1S(=O)(=O)Nc1cccc(OC(F)(F)F)c1` (stereo not shown) [Example 1.452], the half-maximal inhibitory concentration (IC50) is not above 200 nM.

Turning to `CCOc1cc(NC(=O)[C@@H](O)C(C)CC)ccc1S(=O)(=O)Nc1cccc(OC(F)(F)F)c1` (stereo partly shown) [Example 1.492], the IC50 was not above 200 nM.

In the case of `CCOc1cc(NC(=O)CC(O)C2CCCOC2)ccc1S(=O)(=O)Nc1cccc(OC(F)(F)F)c1` (stereo not shown) [Example 1.230], the IC50 lay in the range of 750 to 2000 nM.

Turning to `CCOc1cc(NC(=O)[C@@H](N)C(C)O)ccc1S(=O)(=O)Nc1cccc(OC(F)(F)F)c1` (stereo partly shown) [Example 1.032], the 50% inhibitory concentration (IC50) is not above 200 nM.

In the case of `CCOc1cc(NC(=O)[C@@H](O)C(C)C)ccc1S(=O)(=O)Nc1cccc(OC(F)(F)F)c1` [Example 1.105], the IC50 is not above 200 nM.

Regarding `CCOc1cc(NC(=O)C(CC)C(=O)O)ccc1S(=O)(=O)Nc1cccc(OC(F)(F)F)c1` (stereo not shown) [Example 1.571], the IC50 was not above 200 nM.

In the case of `CCCOc1cc(NC(=O)[C@@H](O)C(C)C)ccc1S(=O)(=O)Nc1cccc(OC(F)(F)F)c1` [Example 1.034], the IC50 was not above 200 nM.

As for `COc1cc(NC(=O)C2NC3CCC2C3)ccc1S(=O)(=O)Nc1cccc(C(F)(F)F)c1` (stereo not shown) [Example 1.472], the IC50 lay in the range of 2000 to 20000 nM.

Turning to `CCN[C@H](C(=O)Nc1ccc(S(=O)(=O)Nc2ccc(C)c(OC(F)(F)F)c2)c(OCC)c1)C(C)C` [Example 1.296], the concentration for half-maximal inhibition (IC50) is not above 200 nM.

With `CCOc1cc(NC(=O)[C@@H](O)C(C)C)ccc1S(=O)(=O)Nc1ccc(OC)c(C(F)(F)F)c1` [Example 1.021], the 50% inhibitory concentration (IC50) was not above 200 nM.

As to `CCOc1cc(NC(=O)C2CCOCC2(C)C)ccc1S(=O)(=O)Nc1cccc(OC(F)(F)F)c1` (stereo not shown) [Example 1.215], the IC50 lay in the range of 200 to 750 nM.

As to `COc1cc(NC(=O)C2CC3C=CC2O3)ccc1S(=O)(=O)Nc1cccc(OC(F)(F)F)c1` (stereo not shown) [Example 1.370], the IC50 was 750 to 2000 nM.

Regarding `COc1cc(NC(=O)c2ccnn2C)ccc1S(=O)(=O)Nc1cccc(OC(C)C)c1` [Example 1.145], the IC50 was in the range of 750 to 2000 nM.

With `CCOc1cc(NC(=O)C(C(N)=O)C2CCCC2)ccc1S(=O)(=O)Nc1cccc(OC(F)(F)F)c1` (stereo not shown) [Example 1.245], the half-inhibitory concentration (IC50) is not above 200 nM.

Consider `CCOc1cc(NC(=O)[C@@H](CO)c2ccccc2)ccc1S(=O)(=O)Nc1cccc(C(C)(C)C)c1` [Example 1.170], for which the concentration for half-maximal inhibition (IC50) was not above 200 nM.

With `CCOc1cc(NC(=O)c2ccc(N)nc2)ccc1S(=O)(=O)Nc1cccc(OC(F)(F)F)c1` [Example 1.326], the IC50 was not above 200 nM.

Regarding `COc1cc(NC(=O)c2ccnn2C)ccc1S(=O)(=O)Nc1ccc2c(c1)OC(F)(F)O2` [Example 1.582], the concentration for half-maximal inhibition (IC50) was 750 to 2000 nM.

With `CCOc1cc(NC(=O)[C@@H](CO)c2ccccc2)ccc1S(=O)(=O)Nc1ccc(C)c(OC(F)(F)F)c1` [Example 1.003], the IC50 is not above 200 nM.

Regarding `CCOc1cc(NC(=O)[C@@H](N)CC(C)C)ccc1S(=O)(=O)Nc1cccc(OC(F)(F)F)c1` [Example 1.109], the IC50 is not above 200 nM.

`C[C@@H]1COCC[C@@H]1C(=O)Nc1ccc(S(=O)(=O)Nc2cccc(OC(F)(F)F)c2)c(C#N)c1` (racemic) [Example 1.341]: the concentration for half-maximal inhibition (IC50) lay in the range of 2000 to 20000 nM.

For `CCOc1cc(NC(=O)CC(C)(O)C(F)(F)F)ccc1S(=O)(=O)Nc1cccc(OC(F)(F)F)c1` (stereo not shown) [Example 1.512], the IC50 fell in the range of 200 to 750 nM.

Regarding `CC(C)c1cc(NC(=O)c2ccnn2C)ccc1S(=O)(=O)Nc1cccc(C(F)(F)F)c1` [Example 1.384], the concentration for half-maximal inhibition (IC50) is 200 to 750 nM.

As to `CCOc1cc(NC(=O)C2CCS(=O)(=O)CC2)ccc1S(=O)(=O)Nc1cccc(OC(F)(F)F)c1` [Example 1.470], the IC50 was in the range of 2000 to 20000 nM.

Consider `CCOc1cc(NC(=O)C(O)C2CC2)ccc1S(=O)(=O)Nc1cccc(OC(F)(F)F)c1` (stereo not shown) [Example 1.198], for which the IC50 is not above 200 nM.

Regarding `CCOc1cc(NC(=O)C(O)c2c(F)cccc2F)ccc1S(=O)(=O)Nc1cccc(OC(F)(F)F)c1` (stereo not shown) [Example 1.511], the IC50 was not above 200 nM.

On to `CCOc1cc(NC(=O)c2cccc3cn[nH]c23)ccc1S(=O)(=O)Nc1cccc(OC(F)(F)F)c1` [Example 1.357], for which the IC50 was in the range of 200 to 750 nM.

Regarding `COc1cc(NC(=O)[C@H]2CC[C@@H](OC)CC2)ccc1S(=O)(=O)Nc1cccc(C(F)(F)F)c1` [Example 1.371], the IC50 was 2000 to 20000 nM.

As for `Cc1cc(NC(=O)c2c(Br)cnn2C)ccc1S(=O)(=O)Nc1cccc(C(F)(F)F)c1` [Example 1.284], the concentration for half-maximal inhibition (IC50) lay in the range of 2000 to 20000 nM.

As for `CCOc1cc(NC(=O)C(CC(C)C)C(=O)O)ccc1S(=O)(=O)Nc1cccc(OC(F)(F)F)c1` (stereo not shown) [Example 1.421], the IC50 is not above 200 nM.

The IC50 is the concentration that gives 50% inhibition.
